Laboratory results: patent publication US20250090640A1, “METHOD OF IMPROVING THE VIABILITY OF A DENTAL IMPLANT” (priority 2023, published 2025)

What was measured:
[1] = system: patients with severe, chronic periodontal disease; details: 6-week course of daily injections (20 mcg) from 3 days prior to surgery, with oral calcium and vitamin D; cited from earlier work
OVX rats = system: OVX rats; design: species or system Sprague-Dawley rats; details: rat, in vivo
Text: In this study, Sprague-Dawley rats were divided into three groups (Table 1) to study the impact of abaloparatide treatment on implant viability in rats in a model that mimics osteoporosis by ovariectomy (OVX).
At four months, rats in the OVX groups were ovariectomized, and bone depletion was allowed to occur for two months. At this point, daily injections of abaloparatide (Abalo) or vehicle (VEH) began 42 days prior to implant surgery and were continued out to 21 days past implant surgery.
As shown in FIGS. 2A-2C, 3A-3F, and 4A-4C, altered bone metabolism in the OVX rats and residual ridge defects complicated implant placement. […] However, abaloparatide did increase bone mass density in the femoral shaft and intact maxillac on the non-extraction side of the jaw (FIGS. 4A and 4B, respectively). With continued reference to FIGS. 4A and 4B, there was a 150% increase in mean BMD in OVX rats treated with ABL versus VEH.

Structure (SMILES)	clinical outcomes relative to placebo during the year following periodontal surgery [1]	relationship of unexpected healing complications after tooth extraction to treatment (OVX rats)
CC[C@H](C)[C@H](NC(=O)[C@H](CCC(=O)O)NC(=O)[C@H](CO)NC(=O)[C@@H](NC(=O)[C@@H](N)CO)C(C)C)C(=O)N[C@@H](CCC(N)=O)C(=O)N[C@@H](CC(C)C)C(=O)N[C@@H](CCSC)C(=O)N[C@@H](Cc1cnc[nH]1)C(=O)N[C@@H](CC(N)=O)C(=O)N[C@@H](CC(C)C)C(=O)NCC(=O)N[C@@H](CCCCN)C(=O)N[C@@H](Cc1cnc[nH]1)C(=O)N[C@@H](CC(C)C)C(=O)N[C@@H](CC(N)=O)C(=O)N[C@@H](CO)C(=O)N[C@@H](CCSC)C(=O)N[C@@H](CCC(=O)O)C(=O)N[C@@H](CCCN=C(N)N)C(=O)N[C@H](C(=O)N[C@@H](CCC(=O)O)C(=O)N[C@@H](Cc1c[nH]c2ccccc12)C(=O)N[C@@H](CC(C)C)C(=O)N[C@@H](CCCN=C(N)N)C(=O)N[C@@H](CCCCN)C(=O)N[C@@H](CCCCN)C(=O)N[C@@H](CC(C)C)C(=O)N[C@@H](CCC(N)=O)C(=O)N[C@@H](CC(=O)O)C(=O)N[C@H](C(=O)N[C@@H](Cc1cnc[nH]1)C(=O)N[C@@H](CC(N)=O)C(=O)N[C@@H](Cc1ccccc1)C(=O)O)C(C)C)C(C)C [Teriparatide]	improved clinical outcomes	–
CC[C@H](C)[C@H](NC(=O)[C@H](CO)NC(=O)[C@H](CCCCN)NC(=O)CNC(=O)[C@H](CCCCN)NC(=O)[C@H](CC(=O)O)NC(=O)[C@H](Cc1cnc[nH]1)NC(=O)[C@H](CC(C)C)NC(=O)[C@H](CC(C)C)NC(=O)[C@H](CCC(N)=O)NC(=O)[C@H](Cc1cnc[nH]1)NC(=O)[C@H](CCC(=O)O)NC(=O)[C@H](CO)NC(=O)[C@@H](NC(=O)[C@H](C)N)C(C)C)C(=O)N[C@@H](CCC(N)=O)C(=O)N[C@@H](CC(=O)O)C(=O)N[C@@H](CC(C)C)C(=O)N[C@@H](CCCNC(=N)N)C(=O)N[C@@H](CCCNC(=N)N)C(=O)N[C@@H](CCCNC(=N)N)C(=O)N[C@@H](CCC(=O)O)C(=O)N[C@@H](CC(C)C)C(=O)N[C@@H](CC(C)C)C(=O)N[C@@H](CCC(=O)O)C(=O)N[C@@H](CCCCN)C(=O)N[C@@H](CC(C)C)C(=O)N[C@@H](CC(C)C)C(=O)NC(C)(C)C(=O)N[C@@H](CCCCN)C(=O)N[C@@H](CC(C)C)C(=O)N[C@@H](Cc1cnc[nH]1)C(=O)N[C@H](C(=O)N[C@@H](C)C(N)=O)[C@@H](C)O [abaloparatide, [Glu^22,25, Leu^23,28,31, Aib^29, Lys^26,30]hPTHrP(1-34)NH2]	–	no relationship
